From PubChem BioAssay (NCI)
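Results reflect a 48-hour exposure of cells in 96-well plates to compound at five concentrations. GI50 is the concentration that inhibits growth by half. TGI denotes the concentration required for complete inhibition of growth.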

The molecules below were run on ACHN renal (assay: growth of human tumour cells (NCI), 48 h).

Q: Which results are given for `CC1(C)OC2C(CO[Si](C)(C)C(C)(C)C)OC(n3c(I)c(C#C[Si](C)(C)C)c(=O)[nH]c3=O)C2O1` (stereo not given)?
A: GI50: 12.9 µM; TGI: 26.4 µM

Q: What does the source list for `CN(C)CC[C@H](CSc1ccccc1)Nc1ccc(S(=O)(=O)NC(=O)c2ccc(N3CCN(Cc4ccccc4-c4ccc(Cl)cc4)CC3)cc2)cc1[N+](=O)[O-]`?
A: GI50: 4.96 µM; TGI: > 50.6 µM

Q: How did the GI50 turn out when `COc1ccc(-c2ccc(=O)oc2C#Cc2cc(OC)c(OC)c(OC)c2)cc1O` was run?
A: 0.628 µM

Q: What about the TGI of the same molecule?
A: > 62.1 µM

Q: For `O=C(/C=C/c1ccc[nH]1)c1ccc(-n2ccc(C(F)(F)F)n2)cc1`, which GI50 is on record?
A: > 100 µM

Q: And the TGI?
A: > 100 µM

Q: `O=C(c1ccco1)c1c(C(F)(F)F)nc2ccc(Cl)cc2[n+]1[O-]` was tested. Which GI50 did it give?
A: > 100 µM

Q: And the TGI?
A: > 100 µM

Q: Which results are given for `COc1ccc(-c2nnc3n(C)c(=O)c4ccccc4n23)cc1N`?
A: GI50: 17.3 µM; TGI: > 100 µM

Q: What does the source list for `CN(C)C1CCN(C(=O)c2ccc(NC(=O)Nc3ccc(-c4nc(N5CCOCC5)c5cccn5n4)cc3)cc2)CC1`?
A: GI50: 1.05 µM; TGI: 13 µM

Q: For `COc1cc(N=Nc2ccc(O)c3ncccc23)c2ncccc2c1`, which GI50 is on record?
A: 2.3 µM

Q: And the TGI?
A: 14.2 µM

Q: With `CCOC(=O)N[C@H]1CCc2cc(OC)c(OC)c(OC)c2-c2ccc(SC)c(=O)cc21` as the molecule, how does the TGI read?
A: > 100 µM

Q: For `N=c1c2c(-c3ccccc3)c(-c3ccccc3)n(Cc3ccccc3)c2ncn1C1CCC(O)CC1` (stereo not given), which GI50 is on record?
A: 0.0653 µM

Q: What about the TGI of the same molecule?
A: 12.8 µM

Q: With `O=C(Nc1cccc(Cl)c1)C(=O)C(C(=O)c1ccc2ccccc2c1)C1OC(=O)c2ccccc21` (stereo not given) as the molecule, how does the TGI read?
A: 82.7 µM

Q: What does the source list for `O=c1c(F)cn(Cc2ccc(C34CC5CC(CC(C5)C3)C4)c(O)c2)c(=O)n1Cc1ccc(C23CC4CC(CC(C4)C2)C3)c(O)c1`?
A: GI50: 13.5 µM; TGI: 26.3 µM

Q: Which TGI does the source give for `COCC(OC)C(CC=C(C#N)C#N)OC` (stereo not given) here?
A: > 100 µM

Q: What does the source list for `NC1CCN(Cc2ccccc2)CC1`?
A: GI50: > 100 µM; TGI: > 100 µM

Q: What does the source list for `N#Cc1nn(-c2cc(=O)[nH]c3ccc(Cl)cc23)c(N)c1C#N`?
A: GI50: > 100 µM; TGI: > 100 µM

Q: How did the TGI turn out when `On1c(-c2ccccc2)c(-c2ccccc2N2CCCC2)c2ccccc21` was run?
A: > 100 µM

Q: With `CCN1CCN(c2cc(C)c3cc(NC(=O)c4ccc(OC)c(OC)c4)ccc3n2)CC1` as the molecule, how does the GI50 read?
A: > 34.4 µM

Q: And the TGI?
A: > 100 µM

Q: How did the TGI turn out when `CC(C)C1=Cc2ccc3c(c2C(=O)C1=O)CCCC3(C)C` was run?
A: 13 µM

Q: `Nc1ncn([C@@H]2O[C@H](CO)[C@@H](O)[C@H]2O)c(=O)n1` was tested. Which GI50 did it give?
A: 0.664 µM

Q: What about the TGI of the same molecule?
A: 16.7 µM

Q: Which TGI does the source give for `CSc1nc(SC)c2c(C#N)[nH]nc2n1` here?
A: > 100 µM

Q: What does the source list for `CC(=O)Nc1ccc(-c2csc(Nc3cccc(-c4csc(C)n4)c3)n2)cc1`?
A: GI50: 1.87 µM; TGI: 22.6 µM

Q: For `COc1ccc(CCN(C)C2CCC(C#N)(c3ccc(OC)c(OC)c3)CC2)cc1OC` (stereo not given), which TGI is on record?
A: > 100 µM

Q: `C=CCC1(c2ccc(OC)cc2)C=CC(=O)CC1` (stereo not given) was tested. Which TGI did it give?
A: > 100 µM

Q: `CCOC(=O)c1nc2c(OC)nn(O)cc-2c1[N+](=O)[O-]` was tested. Which TGI did it give?
A: 31 µM

Q: How did the TGI turn out when `C/C(CC(=O)Nc1ccc(C)c(C)c1)=N\N(c1ccccc1)c1ccccc1` was run?
A: > 100 µM

Q: For `COC(=O)/C(=N\NC(N)=S)C(C(=O)OC)C(=O)C(=O)Nc1ccc(C)cc1` (stereo not given), which TGI is on record?
A: > 100 µM

Q: How did the TGI turn out when `O=C(OC1CCC(=C2SCCCS2)[C@H]1C1SCCCS1)c1ccccc1` (stereo not given in full) was run?
A: > 100 µM

Q: How did the TGI turn out when `O=C(/C(=C/c1ccc(Cl)cc1)c1ccccc1)c1ccccc1` was run?
A: 39.5 µM

Q: For `c1ccc2c(OCCSCCCCCCCCCCSCCOc3cccc4ccccc34)cccc2c1`, which TGI is on record?
A: > 100 µM

Q: Which TGI does the source give for `CN1CCC(=O)/C(=C/c2ccccc2)C1` here?
A: 32.4 µM

What follows are molecules tested on COLO 205 colon (assay: growth of human tumour cells (NCI), 48 h).

Q: Which GI50 does the source give for `CC1(C)OC2C(CO[Si](C)(C)C(C)(C)C)OC(n3c(I)c(C#C[Si](C)(C)C)c(=O)[nH]c3=O)C2O1` (stereo not given) here?
A: 1.59 µM

Q: And the TGI?
A: 2.94 µM

Q: For `CN(C)CC[C@H](CSc1ccccc1)Nc1ccc(S(=O)(=O)NC(=O)c2ccc(N3CCN(Cc4ccccc4-c4ccc(Cl)cc4)CC3)cc2)cc1[N+](=O)[O-]`, which GI50 is on record?
A: 2.12 µM

Q: What about the TGI of the same molecule?
A: 4.7 µM

Q: For `COc1ccc(-c2ccc(=O)oc2C#Cc2cc(OC)c(OC)c(OC)c2)cc1O`, which GI50 is on record?
A: 4.05 µM

Q: And the TGI?
A: > 40.4 µM

Q: What does the source list for `O=C(/C=C/c1ccc[nH]1)c1ccc(-n2ccc(C(F)(F)F)n2)cc1`?
A: GI50: > 100 µM; TGI: > 100 µM

Q: With `O=C(c1ccco1)c1c(C(F)(F)F)nc2ccc(Cl)cc2[n+]1[O-]` as the molecule, how does the GI50 read?
A: 70.4 µM

Q: What about the TGI of the same molecule?
A: > 100 µM
